Test results published in patent publication US20230227392A1, “A APPLICATION OF CYATHANE DITERPENOIDS IN PREPARATION OF DRUGS FOR TREATING NEUROINFLAMMATION” (Northwest A&F University, priority 2022, published 2023).
Entries after “also recorded” stand apart in the source; their conditions may differ.

What was measured:
Assay type in all cases: cell-based, mouse
[1] = tested on: LPS-induced BV-2 microglia; test: Inhibition of nitric oxide (NO) production, Griess method; conditions: 1 μg/mL LPS + 10 μM compound, 24 h, FIG. 2
Experimental: The mouse microglia (BV-2) were cultured in the DMEM culture medium containing 10% of fetal bovine serum (FBS) and 1% of antibiotics (100 U/mL of […] and penicillin) at 37° C. in the incubator of 5% CO2.
NO is an important inflammatory mediator. Excessive production of NO is common in neurons and glial cells of brains with ND^[8]. Griess reagent was configured to evaluate the influence on NO production in order to measure the anti-inflammatory effects of sarcodonin A and its derivative in LPS-induced BV-2 microglia. Before adding the detection reagent, BV-2 cells (2×10^5/mL) were incubated in the 96-well plate and cultured at 37° C. for 24 h. The experimental groups were divided into a control group (DMSO), an LPS-treated group ([…] of LPS) and a compound-treated group (1 μg/mL of LPS+10 μM compound), and then incubation was performed for 24 h. The nitrite concentration in the culture medium was measured by a commercial analysis kit. The main principle was based on the griess method. Supernatant of the BV-2 cells (50 μL) reacted with the griess reagent (50 μL of griess regent I and 50 μL of griess regent II). The absorbance was measured at 540 nm on the Bio-Tek micropore plate reader, and the nitrite concentration was calculated by a nitrite standard curve with sodium nitrite as the standard.
The inhibition rate %=(ALPS−Acompound)/(ALPS−Ablank)×100;

LPS-induced BV-2 cells [2] = test: mRNA levels of M1/M2 biomarkers by qRT-PCR; conditions: FIG. 3; for mRNA expression of COX-2 induced by the LPS / mRNA level of IL-10: 10 μM / tested concentration; for mRNA expression of IL-6 induced by the LPS / mRNA level of ARG-1: 10 μM; for mRNA expression of TNF-α induced by the LPS: 1 at 10 μM; for mRNA level of IL-10 / mRNA level of ARG-1: M2 marker
Experimental: In order to detect the regulation of M1/M2 phenotype switch by 1 and 6, the effects on the mRNA expression of representative M1 and M2 biomarkers in the LPS-stimulated BV-2 cells were evaluated. The cells were incubated into a 6 cm of culture dish (5 mL/dish) at a density of 2×10^5 cfu, and cultured in a constant-temperature incubator of 5% CO2 at 37° C. for 12 h. According to the manufacturer's instructions, total RNA was extracted by Trizol, and concentration and purity thereof were measured by a UV-Vis spectrophotometer. 2 μg of isolated RNA was reversely transcribed into cDNA by Prime Script RTMaster Mix kit. By using a Syr Green quantitative RT-PCR kit, an mRNA level was evaluated by qRT-PCR response. β-actin was used as an internal standard. The primer sequences are as follows (Table 1).

LPS-induced BV-2 cells [3] = test: M1/M2 marker cytokine secretion by ELISA; conditions: for production of IL-1β / production of IL-6 / production of IL-10 / production of TNF-α: 3 and 10 μM, 1 h pretreatment then LPS 24 h, effect enhanced as concentration increases, FIG. 4
Experimental: To further evaluate the role of 1 and 6 in M1 polarization of the LPS-induced microglia, the release of pro-inflammatory M1 cytokines (including TNF-α, IL-6 and IL-1β) and anti-inflammatory M2 cytokines (including IL-10) in the LPS-induced BV-2 cells was detected by ELISA. The BV-2 cells were incubated in a 6-well plate (2 mL/well) at a density of 2×10^5 cfu, cultured in a constant-temperature incubator of 5% CO2 at 37° C. for 24 h, then pretreated with different concentrations of compounds 1 and 6 (3 μM, 10 μM), LPS (1 μg/mL) and DMSO for 1 h, and then induced by the LPS for 24 h. Supernatant of the cell culture medium was collected, and the concentrations of TNF-α, IL-6, IL-10 and IL-1β were measured according to manufacturer's instructions.

LPS-induced BV-2 cells [4] = test: M1/M2 marker protein expression by Western blotting; conditions: FIG. 5; for M1/M2 polarization of the LPS-induced BV-2 cells: conclusion from marker expression
Experimental: The protein expression of iNOS, COX-2(M1 marker) and ARG-1(M2 marker) was analyzed by Western blotting. The BV-2 cells (5×10^5 cfu) cultured in a 6 cm dish were pretreated with 1 or 6 ([…]) respectively for 1 h, and then 1 μg/ml LPS was added for 24 h. The cells were lysed in an ice-cold RIPA lysis buffer with a mixed solution of 10 mM of PMSF and 1% of protein inhibitors. The cytosol lysate was centrifuged at 4° C. at 12000 rpm for 30 minutes. Total protein was isolated from the lysate and their concentration was determined by BCA.
A sample was separated by 8%-12% SDS-PAGE and transferred to a […] PVDF membrane. The membrane was blocked with 5% BSA in TBST (20 mM of Tris-HCl, 150 mM of NaCl, 0.1% of Tween-20) for 1 h at room temperature, and then incubated with appropriate primary antibodies: anti-β-tubulin (1:1000), anti-GAPDH (1:1000), anti-iNOS (1:500), anti-COX-2 (1:1000) and anti-ARG-1 (1:500) at 4° C. overnight. The membrane was washed in the TBST for 3×5 minutes, and then incubated with the secondary antibody bound to appropriate peroxidase (HRP) and left at room temperature for 1 h. The blot was washed in the TBST for 3×5 minutes and exposed to an ECL chemiluminescence reagent. At last, the signal was detected by the Bio-Rad ChemiDoc XRS+ system.

[5] = tested on: LPS-induced BV-2 microglia; test: MAPK phosphorylation (ERK1/2, JNK, p38 MAPK) by Western blotting; conditions: Western blot, 1 h pretreatment then LPS 1 μg/mL 30 min; FIG. 6
Experimental: Previous studies have shown that the over-activation of MAPK signaling cascade is related to neuroinflammatory reaction^[9-10]. In order to clarify the action mode of 6 in reversing the M1 polarization of the microglia, the effects of 6 on phosphorylation levels of ERK1/2, […] and p38 MAPK in the LPS-induced BV-2 microglia are further studied. BV-2 cells (5×10^5 cfu) cultured in a 6 cm dish are pretreated with compound 1 or 6 ([…]) respectively for 1 h, and then added with the LPS (1 μg/mL) for 30 min. The similar method is used by Western blotting, and the primary antibodies are: […] (1:1000), anti-GAPDH (1:1000), anti-ERK1/2 (1:1000), anti-phosphorylated ERK1/2 (1:1000), anti-p38 MAPK (1:2000), anti-phosphorylated p38 MAPK (1:1000), anti-JNK (1:2000) and anti-phosphorylated JNK (1:1000).

LPS-induced BV-2 cells [6] = test: Nuclear translocation of NF-κB subunit p65 by Western blotting; conditions: Western blot of nuclear and cytoplasmic parts
Source text: The nuclear translocation of NF-κB subunit p65 as an activation index of NF-κB is examined. The cells were collected in the same way for Western blotting. A extraction kit is configured to isolate and extract nuclear and cytoplasmic parts according to the instructions. The primary antibodies are anti-NF-κB p65 (1:1000), anti-Lamin B1 (1:1000) and anti-GAPDH (1:1000).

[7] = Western blot, 1 h pretreatment then 1 μg/ml LPS 24 h

Compound	inhibition of NO production (in words) [1]	mRNA expression of COX-2 induced by the LPS (LPS-induced BV-2 cells [2]; M1 marker)	mRNA expression of IL-6 induced by the LPS (LPS-induced BV-2 cells [2]; M1 marker)	mRNA expression of TNF-α induced by the LPS (LPS-induced BV-2 cells [2]; M1 marker)	mRNA level of IL-10 (LPS-induced BV-2 cells [2])	mRNA level of ARG-1 (LPS-induced BV-2 cells [2])	production of IL-1β (LPS-induced BV-2 cells [3])	production of IL-6 (LPS-induced BV-2 cells [3])	production of IL-10 (LPS-induced BV-2 cells [3])	production of TNF-α (LPS-induced BV-2 cells [3])	protein expression of ARG-1 (LPS-induced BV-2 cells [4]; [7])	protein expression of LPS-induced iNOS (LPS-induced BV-2 cells [4]; [7])	M1/M2 polarization of the LPS-induced BV-2 cells (LPS-induced BV-2 cells [4])	also measured
CC(CO)C1=C2C3=CC=C(C=O)C[C@H](O)[C@]3(C)CC[C@@]2(C)CC1 (some centres unmarked) [Compound 1, sarcodonin A]	can inhibit	does not affect	inhibits	inhibits	does not affect	enhance	inhibitory effect	inhibitory effect	promoting effect	inhibitory effect	promotes	inhibits	inhibit the M1 polarization and enhance M2 polarization	
CC(COC(=O)c1ccccc1Cl)C1=C2C3=CC=C(C=O)CC(O)C3(C)CCC2(C)CC1 (centres unmarked) [Compound 3]	higher inhibitory activity													
CC(COC(=O)c1ccccc1Br)C1=C2C3=CC=C(C=O)CC(O)C3(C)CCC2(C)CC1 (centres unmarked) [Compound 4]	higher inhibitory activity; also recorded: highest inhibitory activity in o-halogen-substituted 19-O-benzoyl derivatives													
CC(COC(=O)c1ccc(Br)cc1)C1=C2C3=CC=C(C=O)CC(O)C3(C)CCC2(C)CC1 (centres unmarked) [Compound 6]	higher inhibitory activity; also recorded: strongest activity	inhibits	inhibits	inhibits	promotes	promotes	inhibitory effect	inhibitory effect	promoting effect	inhibitory effect	more obvious promoting effect	more obvious inhibitory effect	inhibit the M1 polarization and enhance M2 polarization	inhibitory activity on NO production (inhibition rate) ([1]; compared with the LPS control group): 55%; mRNA expression of IL-1β induced by the LPS (LPS-induced BV-2 cells [2]; M1 marker): inhibits; mRNA expression of iNOS induced by the LPS (LPS-induced BV-2 cells [2]; M1 marker): inhibits; comparison of effect on cytokine production at the same concentration (LPS-induced BV-2 cells [3]; IL-6, IL-1β, TNF-α, IL-10, FIG. 4): more effective than 1; protein expression of COX-2 (LPS-induced BV-2 cells [4]; [7]): more obvious inhibitory effect; activation (phosphorylation) of ERK1/2 induced by the LPS [5]: significantly inhibits; activation (phosphorylation) of INK induced by the LPS [5]: significantly inhibits; phosphorylation of p38 MAPK [5]: little effect; LPS-stimulated nuclear translocation of NF-κB p65 (LPS-induced BV-2 cells [6]): significantly inhibits
CC(=O)OCC(C)C1=C2C3=CC=C(C=O)CC(OC(C)=O)C3(C)CCC2(C)CC1 (centres unmarked) [Compound 7]	strong inhibitory effect similar to that of 6													
